{
  "source": "patent US10751304B2",
  "about": "“Topical and transdermal delivery of HIF-1 modulators to prevent and treat chronic wounds” (The Board of Trustees of the Leland Stanford Junior …, priority 2008, dated 2020)",
  "key": {"[1]": {"tested_on": "excisional wounds of diabetic (Db/Db) mice", "test": "Murine excisional wound healing model, diabetic (Db/Db) mice", "type": "in vivo", "details": "topical, delivery control day 23", "description": "Young (8 weeks, Jackson Laboratories) aged (18-24 months, National Institute of Aging aged rodent colony), and Diabetic (Db/Db) C57/BL6 mice (n=4 per group) underwent excisional wound biopsies in accordance with the Stanford University Institutional Animal Care and Use Committees. Wounds were made as previously described. Briefly, two 6-mm circular, full-thickness wounds were made on the dorsum of mice. A 12 mm diameter, 0.5 mm thick donut shaped silicone ring (Grace Bio-Labs, Bend, Oreg.) was then placed around the wounds preventing premature skin contracture. […] Wounds were dressed with a sterile occlusive dressing that was changed daily, monitored, and photographed every other day until closure. […]\n(§1) CD31 staining was performed on paraffin embedded 5-micron wound sections (1:50, Santa Cruz Biotechnology, Santa Cruz, Calif.) diluted in blocking goat serum overnight at 4° C. […] Sections were then mounted with Vectashield plus DAPI (Vector Laboratories, Burlingame, Calif.), and analyzed using a Zeiss Axioplan 2 light-fluorescent microscope (Carl Zeiss Vision, Germany) equipped with Zeiss AxioCam HR digital imaging software (Carl Zeiss Vision). […]\nTransdermal delivery of DFO accelerates murine wound healing: Given the optimal release properties and structural parameters determined above, we sought to evaluate the ability of our DFO delivery device to improve gross wound healing in diabetic mice. […]"}, "[2]": {"test": "DFO patch release and skin penetration (Example 4)", "type": "in vitro ADME"}, "[3]": {"tested_on": "diabetic ulcers", "test": "Murine pressure ulcer model, diabetic mice, transdermal patch", "type": "in vivo", "details": "transdermal patch delivery; controls Day 45+", "description": "(§2) Pressure ulcers on the dorsum of aged mice (19 month, NIA) and Diabetic (Db/Db) C57Bl/6 mice (n=6 per group) where created using two ceramic magnets (12 mm diameter and 5 mm thick, and average weight of 2.4 g) that apply 50 mm Hg pressure to the skin between them (Stadler et. al. J Invest Surg. 2004 July-August; 17(4):221-7). A single ischemia/reperfusion (I/R) cycle consists of placement of magnets (ischemia) for a designated time period followed by release (reperfusion). Three ischemia-reperfusion cycles were used in each animal to initiate decubitus ulcer formation (either in 3 h or 12 h cycles). Animals were housed individually, to prevent the accidental dislocation of the magnets and to prevent tampering with the resultant ulcer.\n30 μm fresh frozen sections were washed with PBS and stained with 10 μM Dihydroethidium (DHE, invitrogen) at 37 C for 30 minutes. Slides were then washed with PBS, and Vectashield with DAPI was added.\nTransdermal delivery of DFO reduces ROS accumulation and ulcer formation: We have completed studies examining the ability of our DFO patch to ameliorate diabetes-associated deficits in wound healing using our pressure ulcer model. This injury model causes increased levels of ROS, as assayed using dihydroethidium (DHE) fluorescent staining."}, "[4]": {"tested_on": "VEGF", "test": "VEGF ELISA of harvested wounds", "type": "in vivo, murine", "details": "control 100 ng/ml", "description": "ELISA. Total protein was isolated from harvested wounds by homogenizing tissue in RIPA buffer. VEGF and SDF-1 levels were measured using the Quantikine murine VEGF and SDF-1 ELISA kits (R&D Systems, Minneapolis, Minn.) according to manufacturer's instructions."}, "[5]": {"tested_on": "pressure ulcers on the dorsum of aged mice", "test": "Murine pressure (decubitus) ulcer model in aged mice", "type": "in vivo", "details": "n=6", "description": "as §2, §1\nWe evaluated the ability of DFO to prevent pressure ulcer formation, which has been associated with HIF-1α dysfunction and diabetes, using a previously described murine pressure ulcer model. […]"}},
  "note": "Entries after “also recorded” stand apart in the source; their conditions may differ.",
  "data": [
    {"compound": "CC(=O)N(O)CCCCCNC(=O)CCC(=O)N(O)CCCCCNC(=O)CCC(=O)N(O)CCCCCN", "note": "[deferoxamine]", "values": [
      {"measurement": "wound closure", "setting": "[1]", "result": 13, "unit": "days"},
      {"measurement": "DFO uptake into the skin / DFO delivery", "setting": "[2]; reverse micelles destabilized using 5% DMSO, listed as DFO", "result": "inhibit DFO delivery; also recorded: significantly reduces the DFO uptake into the skin"},
      {"measurement": "drug penetration", "setting": "[2]; without an occlusive backing", "result": "very minimal drug penetration"},
      {"measurement": "reduction in skin penetration of DFO", "setting": "[2]; without backing membrane", "result": 10, "unit": "fold"},
      {"measurement": "diabetic ulcer closure", "setting": "[3]", "result": 30, "unit": "days"},
      {"measurement": "VEGF via ELISA", "setting": "[4]", "result": 200, "unit": "ng/mL"},
      {"measurement": "ulcer closure date", "setting": "[5]; controls day 19", "result": 17, "unit": "days"},
      {"measurement": "Ulcer incidence", "setting": "[5]; pressure ulcer model, controls 100%", "result": 33, "unit": "%"}
    ]}
  ]
}
